Assay results as given in patent US10266544B2, “Aryl substituted aminomethyl spectinomycin analogs as antibacterial agents” (ST. JUDE CHILDREN'S RESEARCH HOSPITAL, INC., priority 2013, dated 2019).
Converted amounts (≈) assume the structure as drawn. Counter-ions that a name gives are not always drawn. Like-named read-outs stand apart in the source and are kept apart here.

Legend:
Type in all cases: cell-based
[1] = system: Bacillus anthracis, Sterne 34F2; assay: microbe, parasite or virus in culture; conditions: STERNE34F2, read-out: MIC B.a.
[2] = system: Bacillus subtilis (ATCC 23857); assay: MIC determination, microbroth dilution; conditions: ATCC23857; Bacillus subtilis (ATCC 23857); read-out: MIC B.s.
[3] = system: Staphylococcus aureus (ATCC 29213); assay: MIC determination, microbroth dilution
[4] = system: MRSA, Staphylococcus aureus (NRS70); assay: MIC determination, microbroth dilution; conditions: read-out: MIC MRSA
[5] = system: Streptococcus pneumoniae (R6); assay: MIC determination, microbroth dilution; conditions: Streptococcus pneumoniae (R6); read-out: MIC S. pn.
[6] = system: Streptococcus pyogenes (ATCC 700294); assay: MIC determination, microbroth dilution; conditions: ATCC700294; Streptococcus pyogenes (ATCC 700294); read-out: MIC S. py.
[7] = system: acinetobacter baumannii (ATCC 19606); assay: MIC determination, microbroth dilution; conditions: ATCC19606
[8] = system: Burkholderia cepacia (ATCC 25416); assay: MIC determination, microbroth dilution; conditions: Burkholderia cepacia
[9] = system: Escherichia coli (ATCC 700926); assay: MIC determination, microbroth dilution; conditions: ATCC700926; Escherichia coli (ATCC 700926); read-out: MIC E.c.
Method: MICs were determined using the microbroth dilution method according to Clinical Laboratory Standards Institute (CLSI; National, C. F. C. L. S., Methods for Dilution Antimicrobial Susceptibility Tests for Bacteria Grow aerobically-Seventh Edition: Approved Standard M7-A7, CLSI, Wayne, Pa., USA, 2008) and were read by visual inspection. Two fold serial dilutions of antibiotic in 100 μL of the appropriate broth media were first prepared in 96-well round bottom microtiter plates (Nalge Nunc International, Rochester, N.Y., USA). An equivalent volume (100 μL) of bacterial broth inocula containing approximately 10^5 bacterial cfu/mL was added to each well to give final concentrations of drug starting at 200 μg/mL and the plates were incubated aerobically at 37° C. M. tuberculosis microtiter plates were incubated for 7 days and all other strains were incubated overnight. After incubations, in all cases the MIC was recorded as the lowest concentration of drug that prevented bacterial growth.

[10] = system: E. coli K12 ΔtolC; assay: microbe, parasite or virus in culture; conditions: Escherichia coli, read-out: MIC E.c. Δtolc
[11] = system: Klebsiella pneumoniae (ATCC 33495); assay: MIC determination, microbroth dilution; conditions: ATCC33495
[12] = system: Pseudomonas aeruginosa (PA01); assay: MIC determination, microbroth dilution
[13] = system: Proteus mirabilis (ATCC 25933); assay: MIC determination, microbroth dilution; conditions: ATCC25933
[14] = system: Proteus vulgaris (ATCC 33420); assay: MIC determination, microbroth dilution; conditions: ATCC33420
[15] = system: Stenotrophomonas maltophilia (ATCC 13637); assay: MIC determination, microbroth dilution; conditions: ATCC13637; Stenotrophomonas maltophilia (ATCC 13637); read-out: MIC S.m.
[16] = system: Haemophilus influenza (ATCC 49247); assay: microbe, parasite or virus in culture; conditions: ATCC49247; Haemophilus influenza; 4 μg per disc; range of at least two experiments; read-out: Zone of inhibition H.i.
[17] = system: Legionella pneumophila (ATCC 33153); assay: microbe, parasite or virus in culture; conditions: ATCC33153, 72 h, read-out: Zone of inhibition L.p.
[18] = system: Neisseria gonorrhoeae (ATCC 49226); assay: Disc diffusion assay; conditions: ATCC49226, 4 μg per disc, read-out: Zone of inhibition N.g.
[19] = system: M. tuberculosis clinical isolates; assay: microbe, parasite or virus in culture; conditions: Mycobacterium tuberculosis
[20] = system: Enterococcus faecalis (ATCC 33186); assay: MIC determination, microbroth dilution
[21] = system: Bacillus anthracis; assay: microbe, parasite or virus in culture; conditions: read-out: MIC B.a.
[22] = ATCC29213, Staphylococcus aureus (ATCC 29213), read-out: MIC S.a.
[23] = ATCC25416, read-out: MIC B.c., Burkholderia cepacia (ATCC 25416)
[24] = Staphylococcus aureus, ATCC29213, read-out: MIC S.a.
[25] = ATCC25416, read-out: MIC B.c., Burkholderia cepacia, Table 6
[26] = ATCC33186, Enterococcus faecalis (ATCC 33186), read-out: MIC E.f.

Structure (SMILES)	MIC [1] [µg/mL]	MIC [2] [µg/mL]	MIC [3, 22] [µg/mL]	MIC ([4]; Staphylococcus aureus (NRS70)) [µg/mL]	MIC [5] [µg/mL]	MIC [6] [µg/mL]	MIC ([19]; H37RV, read-out: MIC H37Rv) [µg/mL]	MIC [20, 26] [µg/mL]	other results
CN[C@@H]1[C@H](O)[C@H](NC)[C@H]2O[C@]3(O)[C@H](O[C@@H]2[C@H]1O)O[C@H](C)C[C@@]3(O)CNc1ccc(F)cc1 [compound 31, 3′-(R)-3′-[(4-fluoro)phenylaminomethyl)]dihydrospectinomycin Trihydrochloride]	200	200	200	> 200	12.5 to 25	12.5 to 25	200		MIC [7]: > 200 µg/mL; MIC [8, 23]: > 200 µg/mL; MIC [9]: 100 to 200 µg/mL; MIC [10]: 50 to 100 µg/mL; MIC [11]: > 200 µg/mL; MIC [12]: > 200 µg/mL; MIC [13]: > 200 µg/mL; MIC [14]: > 200 µg/mL; MIC [15]: 200 µg/mL; zone of inhibition at 4 µg/disc [16]: 6 mm; zone of inhibition at 4 µg/disc [17]: 0 mm; zone of inhibition at 4 µg/disc [18]: 12 mm
CN[C@@H]1[C@H](O)[C@H](NC)[C@H]2O[C@]3(O)[C@H](O[C@@H]2[C@H]1O)O[C@H](C)C[C@@]3(O)CNCCc1ccc(C)cc1 [compound 32, 3′-(R)-3′-[(4-Methyl)]Phenethylaminomethyl)]Dihydrospectinomycin Trihydrochloride]	12.5	3.1 to 6.3			6.3	3.1 to 6.3	3.1		MIC ([20]; Enterococcus faecalis, ATCC33186, read-out: MIC E.f.): 12.5 µg/mL; MIC [3, 24]: 12.5 µg/mL; MIC ([4]; Staphylococcus aureus): 12.5 to 25 µg/mL; MIC [7]: > 200 µg/mL; MIC [8, 23]: > 200 µg/mL; MIC [8, 25]: ≥ 200 µg/mL; MIC [9]: 100 to 200 µg/mL; MIC [10]: 50 to 100 µg/mL; MIC [11]: > 200 µg/mL; MIC [12]: ≥ 200 µg/mL; MIC [13]: > 200 µg/mL; MIC [14]: 100 µg/mL; MIC [15]: 6.3 µg/mL; MIC [21]: 12.5 µg/mL; MIC ([19]; read-out: MIC TN022): 6.3 µg/mL; MIC ([19]; read-out: MIC TN026): 6.3 µg/mL
CN[C@@H]1[C@H](O)[C@H](NC)[C@H]2O[C@]3(O)[C@H](O[C@@H]2[C@H]1O)O[C@H](C)C[C@@]3(O)CNCCc1ccc(F)cc1 [compound 33, 3′-(R)-3′-(4-FLUOROphenethylaminomethyl)dihydrospectinomycin Trihydrochloride]	12.5	3.1 to 6.3		25 to 50			3.1	25	MIC [3, 24]: 12.5 to 25 µg/mL; MIC [7]: > 200 µg/mL; MIC [8, 23]: ≥ 200 µg/mL; MIC [8, 25]: > 200 µg/mL; MIC [9]: 12.5 µg/mL; MIC [10]: 6.3 µg/mL; MIC [11]: 200 µg/mL; MIC [21]: 12.5 µg/mL; MIC ([19]; read-out: MIC TN022): 6.3 µg/mL; MIC ([19]; read-out: MIC TN026): 6.3 µg/mL
CN[C@@H]1[C@H](O)[C@H](NC)C2O[C@]3(O)C(OC2[C@H]1O)O[C@H](C)C[C@@]3(O)CNCc1cn(C)c2ccccc12 (stereo partly drawn) [compound 37]	> 200	12.5 (≈ 24.7 µM)	50 (≈ 98.7 µM)	200 (≈ 395 µM)	25 (≈ 49.3 µM)	12.5 (≈ 24.7 µM)	50 (≈ 98.7 µM)	50 (≈ 98.7 µM)	
CN[C@@H]1[C@H](O)[C@H](NC)C2O[C@]3(O)C(OC2[C@H]1O)O[C@H](C)C[C@@]3(O)CNCCCc1ccco1 (stereo partly drawn) [compound 38]	> 200	6.25 (≈ 13.3 µM)	50 (≈ 106 µM)	100 (≈ 212 µM)	12.5 (≈ 26.5 µM)	25 (≈ 53 µM)	6.3 (≈ 13.4 µM)	50 (≈ 106 µM)	
CN[C@@H]1[C@H](O)[C@H](NC)C2O[C@]3(O)C(OC2[C@H]1O)O[C@H](C)C[C@@]3(O)CNCc1ccc2ccccc2c1 (stereo partly drawn) [compound 39]	> 200	25 (≈ 49.6 µM)	100 (≈ 199 µM)	100 (≈ 199 µM)	12.5 (≈ 24.8 µM)	12.5 (≈ 24.8 µM)	50 (≈ 99.3 µM)	50 (≈ 99.3 µM)	
CN[C@@H]1[C@H](O)[C@H](NC)C2O[C@]3(O)C(OC2[C@H]1O)O[C@H](C)C[C@@]3(O)CNCc1ccc(-c2ccccc2)cc1 (stereo partly drawn) [compound 40]	> 200	50 (≈ 94.4 µM)	100 (≈ 189 µM)	100 (≈ 189 µM)	12.5 (≈ 23.6 µM)	6.25 (≈ 11.8 µM)	100 (≈ 189 µM)	25 (≈ 47.2 µM)	
CN[C@@H]1[C@H](O)[C@H](NC)C2O[C@]3(O)C(OC2[C@H]1O)O[C@H](C)C[C@@]3(O)CNCc1cccc(C(=O)OC)c1 (stereo partly drawn) [compound 41]	> 200	50 (≈ 97.7 µM)	200 (≈ 391 µM)	200 (≈ 391 µM)	50 (≈ 97.7 µM)	50 (≈ 97.7 µM)	50 (≈ 97.7 µM)	200 (≈ 391 µM)	
CN[C@@H]1[C@H](O)[C@H](NC)C2O[C@]3(O)C(OC2[C@H]1O)O[C@H](C)C[C@@]3(O)CNCc1ccc(CO)o1 (stereo partly drawn) [compound 42]	> 200	50 (≈ 106 µM)	200 (≈ 422 µM)	> 200	50 (≈ 106 µM)	50 (≈ 106 µM)	25 (≈ 52.8 µM)	200 (≈ 422 µM)	
CN[C@@H]1[C@H](O)[C@H](NC)C2O[C@]3(O)C(OC2[C@H]1O)O[C@H](C)C[C@@]3(O)CNCc1ccc2ccn(C)c2c1 (stereo partly drawn) [compound 43]	> 200	12.5 (≈ 24.7 µM)	50 (≈ 98.7 µM)	12.5 (≈ 24.7 µM)	200 (≈ 395 µM)	100 (≈ 197 µM)	100 (≈ 197 µM)	100 (≈ 197 µM)	
CN[C@@H]1[C@H](O)[C@H](NC)C2O[C@]3(O)C(OC2[C@H]1O)O[C@H](C)C[C@@]3(O)CNCc1ccc(Cc2ccccc2)cc1 (stereo partly drawn) [compound 44]	> 200	25 (≈ 46 µM)	50 (≈ 92 µM)	25 (≈ 46 µM)	6.25 (≈ 11.5 µM)	3.13 (≈ 5.76 µM)	100 (≈ 184 µM)	25 (≈ 46 µM)	
CN[C@@H]1[C@H](O)[C@H](NC)C2O[C@]3(O)C(OC2[C@H]1O)O[C@H](C)C[C@@]3(O)CNCc1ccc(OC)c2c1CCCC2 (stereo partly drawn) [compound 45]	> 200	50 (≈ 93 µM)	100 (≈ 186 µM)	200 (≈ 372 µM)	25 (≈ 46.5 µM)	25 (≈ 46.5 µM)	200 (≈ 372 µM)	50 (≈ 93 µM)	
CN[C@@H]1[C@H](O)[C@H](NC)C2O[C@]3(O)C(OC2[C@H]1O)O[C@H](C)C[C@@]3(O)CNCc1ccc(C)o1 (stereo partly drawn) [compound 46]	> 200	50 (≈ 109 µM)	50 (≈ 109 µM)	> 200	12.5 (≈ 27.3 µM)	12.5 (≈ 27.3 µM)	25 (≈ 54.6 µM)	100 (≈ 219 µM)	
CN[C@@H]1[C@H](O)[C@H](NC)C2O[C@]3(O)C(OC2[C@H]1O)O[C@H](C)C[C@@]3(O)CNCCC(C)c1ccccc1 (stereo partly drawn) [compound 47]	> 200	12.5 (≈ 25.2 µM)	25 (≈ 50.4 µM)	100 (≈ 202 µM)	25 (≈ 50.4 µM)	25 (≈ 50.4 µM)	6.3 (≈ 12.7 µM)	25 (≈ 50.4 µM)	
CN[C@@H]1[C@H](O)[C@H](NC)C2O[C@]3(O)C(OC2[C@H]1O)O[C@H](C)C[C@@]3(O)CNCc1cccn1C (stereo partly drawn) [compound 48]	> 200	12.5 (≈ 27.4 µM)	200 (≈ 438 µM)	200 (≈ 438 µM)	100 (≈ 219 µM)	200 (≈ 438 µM)	200 (≈ 438 µM)	> 200	
CN[C@@H]1[C@H](O)[C@H](NC)C2O[C@]3(O)C(OC2[C@H]1O)O[C@H](C)C[C@@]3(O)CNCC(C)c1ccccc1 (stereo partly drawn) [compound 49]	> 200	12.5 (≈ 26 µM)	50 (≈ 104 µM)	12.5 (≈ 26 µM)	12.5 (≈ 26 µM)	12.5 (≈ 26 µM)	100 (≈ 208 µM)	6.25 (≈ 13 µM)	
